Data reported in article PMC8899820, “Pharmacokinetics, Tissue Distribution, and Excretion Characteristics of a Radix Polygoni Multiflori Extract in Rats” (Frontiers in Pharmacology, 2022).
Read-outs that look alike come from different tables or passages of the source. One block for each compound: values may come before it.

Experiments:
[1] = cited from earlier work
[2] = Biliary excretion in bile duct drained rats after oral RPM extract; settings: single p.o. RPM extract 18 g/kg, rat bile
Experimental: (§1) For the excretion study, the rats were housed singly in metabolic cages with urine collection tubes kept at 4 °C during sample collection. Urine and fecal samples were collected at time intervals of 0–4, 4–8, 8–24, 24–32, and 32–48 h after a single dose of RPM extract at 18 g/kg and then weighed. Another six rats were anesthetized with pentobarbital, fixed in the supine position and subjected to bile duct drainage surgery, and the abdominal wound was sutured. Blank bile samples were collected before the administration of RPM. The rats were weighed, and the state of the rats was observed. Subsequently, they were orally administered 18 g/kg RPM extract. The bile samples were collected at time intervals of 0–1, 1–2, 2–4, 4–6, 6–8, 8–24, 24–32 and 32–48 h. The urine, feces, and bile samples were stored at −70°C until use.
(§2) Samples were prepared using the protein precipitation process. […] After vortex shaking for 5 min and centrifugation at 14,000 g for 5 min, 150 μL of the organic layer was transferred to a clean tube and evaporated to dryness at 25°C under a stream of nitrogen. The residue was reconstituted in 50 μL of the initial mobile phase and subjected to another round of centrifugation at 14,000 g for 5 min, and 5 μL of the supernatant was injected for LC–MS/MS analysis. […] Urine and bile samples were centrifuged at 4°C and 12,000 × g for 15 min. Fecal samples were homogenized in 0.9% saline and then centrifuged at 4°C and 12,000 × g for 15 min to gather the fecal homogenates. Tissue homogenate, urine, bile and fecal samples were subjected to a similar process as the rat plasma samples.
(§3) For the excretion study, 6 rats were placed in metabolic cage after orally administered with 18 g/kg RPM extract, and urine, feces samples were collected at time intervals of 0–4, 4–8, 8–24, 24–32, 32–48, 48–60, and 60–72 h. Another 6 rats were anesthetized with pentobarbital, fixed in the supine position and performed bile duct drainage operation, and the abdominal wound was sutured. […] Subsequently, they were orally administered with 18 g/kg RPM extract. The bile samples were collected at time intervals of 0–1, 1–2, 2–4, 4–6, 6–8, 8–24, 24–32 and 32–48 h. The urine, feces, and bile samples were stored at −70 °C until use.

[3] = Plasma pharmacokinetics of RPM constituents after oral RPM extract; settings: for time at which C max was exhibited: RPM extract p.o.; for AUC(0-inf) / AUC(0-t) / Cmax / MRT inf / Tmax / half-life: Sprague-Dawley, rat, plasma, po
Text: For the pharmacokinetic (PK) study, three groups (n = 6 each) of rats were orally administered RPM extract (6, 18, and 36 g/kg). In the plasma pharmacokinetics experiment, doses were 6, 18, and 36 g/kg for the single administration group and 18 g/kg for the continuous administration group. The doses were set at a subtoxic level ([Zhang et al., 2013]; [Wang et al., 2015]) to investigate the pharmacokinetic profiles of the constituents of RPM (36 g/kg group) and were approximately 60 times the upper dose (6 g/day) for humans recommended by the 2020 edition of Chinese Pharmacopoeia ([Chinese Pharmacopoeia Commission, 2020]), which was converted to a dose for rats based on body surface area conversion ([Reagan-Shaw et al., 2008]). In addition, the low and medium doses decreased in a certain proportion. Serial blood samples (∼120 μL; before dosing and at 5, 15, and 30 min, and 1, 2, 4, 6, 8, 12, and 24 h after administration) were collected in heparinized tubes from the orbital sinus under light isoflurane. The blood samples were centrifuged at 12000 g for 2 min, and the plasma fractions were decanted and frozen at −70°C until analysis.
Samples were prepared using the protein precipitation process. Rat plasma (50 μL) spiked with 10 μL of IS (puerarin 100 ng/ml) was extracted with 150 μL acetonitrile. After vortex shaking for 5 min and centrifugation at 14,000 g for 5 min, 150 μL of the organic layer was transferred to a clean tube and evaporated to dryness at 25°C under a stream of nitrogen. The residue was reconstituted in 50 μL of the initial mobile phase and subjected to another round of centrifugation at 14,000 g for 5 min, and 5 μL of the supernatant was injected for LC–MS/MS analysis.
The analysis was performed on an AB Sciex API 5500 Q Trap mass spectrometer (Toronto, Canada), interfaced with a Waters Acquity UPLC separation module.
(§4) The pharmacokinetic parameters, including the area under the plasma concentration-time curve from time zero to time t (AUC0-t) to time infinity (AUC0-∞), the time to reach the maximum plasma concentration (T max), the elimination half-time (t 1/2), and the maximum plasma concentration (C max), were calculated using the pharmacokinetic software Phoenix® WinNonlin®, version 7.0 (Scientific Consulting Inc., Apex, NC, United States). Data are expressed as the mean ± standard deviation (SD) for each group. The dose-exposure relationship was evaluated by the power function model combined with the confidence interval method ([Smith et al., 2000]; [Sethuraman et al., 2007]; [Hummel et al., 2009]). First, the administration dose, AUC0-∞ and C max were logarithmically transformed, and then a linear regression was performed to obtain the curve correlation coefficient (R^2), slope and 90% confidence interval (90% CI).

[4] = Dose-exposure relationship (power function model with confidence interval method)
Experimental: as §4

[5] = RPM extract 36 g/kg p.o., rat plasma, Mean ± SD, n = 6; ref Cheng et al., 2020; cited from earlier work
[6] = Tissue distribution of RPM constituents after oral RPM extract; settings: for AUC(0-t): Sprague-Dawley, rat, po, 18 g/kg
Experimental: For the tissue distribution study, 18 rats were randomly divided into three groups (n = 6, each) and orally administered 18 g/kg RPM extract. The rats under isoflurane anesthesia were sacrificed by bleeding from the abdominal aorta at 5, 15, and 60 min (six rats per time point) after gavage with 18 g/kg RPM extract. Subsequently, the heart, liver, spleen, lung, kidney, brain, stomach, small intestine, bladder, and gonads (testes of male rats, and uterus and ovaries of female rats) were immediately collected. An accurately weighed amount of fresh tissue sample (0.25 g) was individually homogenized with normal saline (1 ml) and transferred (50 μL) as a tissue homogenate to 1.5 ml centrifuge tubes for use as the tissue samples. All tissue samples were stored at −70°C until analysis.
Samples were prepared using the protein precipitation process. […] The tissue samples were homogenized in four parts of ice-cold 0.9% saline solution and then centrifuged at 4°C and 12,000 × g for 10 min to obtain tissue homogenates. […] Tissue homogenate, urine, bile and fecal samples were subjected to a similar process as the rat plasma samples.
For the tissue distribution study, 18 rats were randomly divided into three groups (n=6, each), and orally administered with 18 g/kg RPM extract. The rats were sacrificed at 5, 15, 60 min after orally administering RPM. Subsequently, the heart, liver, spleen, lung, kidney, brain, stomach, small intestine, bladder, gonad (testes of male rats, uterus and ovaries of female rats) were immediately collected. An accurately weighed amount of fresh tissue sample (0.25 g) was individually homogenized with normal saline (1 mL) and transferred (50 μL) as a tissue homogenate to 1.5 mL centrifuge tubes for use as the tissue samples.

[7] = Excretion into urine and feces and mass balance after oral RPM extract; settings: for dose excreted: Sprague-Dawley, rat, po, mass balance, 18 g/kg RPM extract p.o.; for cumulative excretion into feces / cumulative excretion into urine: single p.o. RPM extract 18 g/kg; for cumulative excretion into feces: rat feces; for cumulative excretion into urine: rat urine
Experimental: as §1, §2, §3

[8] = parameters: method as in Wang P. et al., 2011; settings: ref Wang P. et al., 2011, cited from earlier work
[9] = AUC0-∞ vs p.o. dose of RPM extract, critical interval 0.88–1.12
[10] = C max vs p.o. dose of RPM extract, critical interval 0.80–1.20
[11] = log AUC0-∞ vs log p.o. dose of RPM extract, critical interval 0.88–1.12
[12] = log C max vs log p.o. dose of RPM extract, critical interval 0.80–1.20
[13] = feces, Recovery in feces (%), feces collected 0–72 h
[14] = urine and feces, Recovery in urine and feces (%), urine plus feces, 0–72 h
[15] = urine, Recovery in urine (%), urine collected 0–72 h
[16] = both, bladder, AUC0-t in bladder, rat tissue: bladder, 18 g/kg RPM extract p.o., tissues collected at 5, 15, 60 min
[17] = both, brain, AUC0-t in brain, rat tissue: brain, 18 g/kg RPM extract p.o., tissues collected at 5, 15, 60 min
[18] = both, heart, AUC0-t in heart, rat tissue: heart, 18 g/kg RPM extract p.o., tissues collected at 5, 15, 60 min
[19] = both, intestine, AUC0-t in intestine, rat tissue: intestine, 18 g/kg RPM extract p.o., tissues collected at 5, 15, 60 min
[20] = both, kidney, AUC0-t in kidney, rat tissue: kidney, 18 g/kg RPM extract p.o., tissues collected at 5, 15, 60 min
[21] = both, liver, AUC0-t in liver, rat tissue: liver, 18 g/kg RPM extract p.o., tissues collected at 5, 15, 60 min
[22] = both, lung, AUC0-t in lung, rat tissue: lung, 18 g/kg RPM extract p.o., tissues collected at 5, 15, 60 min
[23] = both, spleen, AUC0-t in spleen, rat tissue: spleen, 18 g/kg RPM extract p.o., tissues collected at 5, 15, 60 min
[24] = both, stomach, AUC0-t in stomach, rat tissue: stomach, 18 g/kg RPM extract p.o., tissues collected at 5, 15, 60 min
[25] = female, ovary, AUC0-t in ovary, rat tissue: ovary, 18 g/kg RPM extract p.o., tissues collected at 5, 15, 60 min
[26] = female, uterus, AUC0-t in uterus, rat tissue: uterus, 18 g/kg RPM extract p.o., tissues collected at 5, 15, 60 min
[27] = male, testis, AUC0-t in testis, rat tissue: testis, 18 g/kg RPM extract p.o., tissues collected at 5, 15, 60 min

Structure (SMILES): Cc1cc(O)c2c(c1)C(=O)c1cc(O)cc(O)c1C2=O [Emodin, emodin]
logP ([1]; ref Liu et al., 2010): 5.03
cumulative excretion into bile [2]: 70.7 ± 20.4 nmol
time at which C max was exhibited ([3]; rat plasma): ≤ 20 min
AUC(0-inf) ([3]; 6 g/kg): 1.35 µM·h
AUC(0-t) ([3]; 6 g/kg): 1.04 µM·h
Cmax ([3]; 6 g/kg): 205 ± 39.4 nM
MRT inf ([3]; 6 g/kg): 12.7 ± 4.65 h
Tmax ([3]; 6 g/kg): 0.12 ± 0.07 h
half-life ([3]; 6 g/kg): 7.72 ± 3.67 h
AUC(0-inf) ([3]; 18 g/kg): 2.91 µM·h
AUC(0-t) ([3]; 18 g/kg): 2.48 µM·h
Cmax ([3]; 18 g/kg): 491 ± 35.8 nM
MRT inf ([3]; 18 g/kg): 13 ± 4.18 h
Tmax ([3]; 18 g/kg): 0.14 ± 0.09 h
half-life ([3]; 18 g/kg): 9.44 ± 3.63 h
Conclusion (dose-exposure relationship) [4, 9]: Nonlinear correlation
Conclusion (dose-exposure relationship) [4, 10]: Nonlinear correlation
Slope (90%CI) [4, 11]: 0.466 (0.290–0.642)
Slope (90%CI) [4, 12]: 0.656 (0.554–0.758)
AUC0-∞ [5]: 2,970 ± 863 nmol·h/L
AUC(0-t) [5]: 2,540 ± 694 nmol·h/L
Cmax [5]: 648 ± 125 nM
AUC(0-t) ([6]; both, bladder): 0.988 µM·h
AUC(0-t) ([6]; both, brain): 0.244 µM·h
AUC(0-t) ([6]; both, heart): 1.64 µM·h
AUC(0-t) ([6]; both, intestine): 5.57 µM·h
AUC(0-t) ([6]; both, kidney): 2.83 µM·h
AUC(0-t) ([6]; both, liver): 6.36 µM·h
AUC(0-t) ([6]; both, lung): 7.11 µM·h
AUC(0-t) ([6]; both, spleen): 19.1 µM·h
AUC(0-t) ([6]; both, stomach): 1.72 µM·h
AUC(0-t) ([6]; female, ovary): 0.57 µM·h
AUC(0-t) ([6]; female, uterus): 0.773 µM·h
AUC(0-t) ([6]; male, testis): 0.116 µM·h
AUC0-t in spleen ([6]; rat tissue: spleen, 18 g/kg RPM extract p.o., tissues collected at 5, 15, 60 min): 19.1 µM·h
dose excreted [7, 13]: 23.6%
dose excreted [7, 14]: 32.5%
dose excreted [7, 15]: 8.82%
cumulative excretion into feces [7]: 50.3 ± 6.18 nmol
cumulative excretion into urine [7]: 19.0 ± 3.81 nmol

plasma concentrations ([3]; RPM extract 6, 18 and 36 g/kg p.o., rat plasma): too low to be detected
Structure (SMILES): COc1cc(O)c2c(c1)C(=O)c1cc(C)cc(O)c1C2=O [Physcion, physcion]
Peff ([8]; colon): (7.45 ± 3.30) × 10^–3 cm/min
Peff ([8]; duodenum): (3.32 ± 1.50) × 10^–3 cm/min
Peff ([8]; ileum): (2.40 ± 0.58) × 10^–3 cm/min
Peff ([8]; jejunum): (2.30 ± 1.57) × 10^–3 cm/min

cumulative excretion into bile [2]: 8.96 ± 2.38 nmol
time at which C max was exhibited ([3]; rat plasma): ≤ 20 min
AUC(0-inf) ([3]; 6 g/kg): 0.0166 ± 0.0109 µM·h
AUC(0-t) ([3]; 6 g/kg): 0.0158 ± 0.0106 µM·h
Cmax ([3]; 6 g/kg): 12.4 ± 2.66 nM
MRT inf ([3]; 6 g/kg): 1.58 ± 0.77 h
Tmax ([3]; 6 g/kg): 0.19 ± 0.09 h
half-life ([3]; 6 g/kg): 1.23 ± 0.58 h
AUC(0-inf) ([3]; 18 g/kg): 0.0495 ± 0.0171 µM·h
AUC(0-t) ([3]; 18 g/kg): 0.048 ± 0.0172 µM·h
Cmax ([3]; 18 g/kg): 37.3 ± 4.57 nM
MRT inf ([3]; 18 g/kg): 2.23 ± 0.3 h
Tmax ([3]; 18 g/kg): 0.11 ± 0.07 h
half-life ([3]; 18 g/kg): 1.9 ± 0.22 h
Conclusion (dose-exposure relationship) [4, 9]: Uncertainty of linear relationship
Slope (90%CI) [4, 11]: 0.720 (0.464–0.977)
Slope (90%CI) [4, 12]: 0.756 (0.627–0.884)
AUC(0-t) [6, 16]: 0.438 µM·h
AUC(0-t) [6, 17]: 0.0185 µM·h
AUC(0-t) [6, 18]: 1.78 µM·h
AUC(0-t) [6, 19]: 0.181 µM·h
AUC(0-t) [6, 20]: 0.845 µM·h
AUC(0-t) [6, 21]: 3.81 µM·h
AUC(0-t) [6, 22]: 0.438 µM·h
AUC(0-t) [6, 23]: 1.19 µM·h
AUC(0-t) [6, 24]: 1.46 µM·h
AUC(0-t) [6, 25]: 0.153 µM·h
AUC(0-t) [6, 26]: 0.38 µM·h
AUC(0-t) [6, 27]: 0.0698 µM·h
dose excreted [7, 13]: 27.9%
dose excreted [7, 14]: 45.5%
dose excreted [7, 15]: 17.6%
cumulative excretion into feces [7]: 30.4 ± 5.73 nmol
cumulative excretion into urine [7]: 19.1 ± 2.99 nmol
Structure (SMILES): COc1cc(O[C@@H]2O[C@H](CO)[C@@H](O)[C@H](O)[C@H]2O)c2c(O)c(C(C)=O)c(C)cc2c1 [TG, torachrysone-8-O-glucoside]
AUC0-∞ [5]: 53.0 ± 18.3 nmol·h/L
AUC(0-t) [5]: 51.9 ± 18.1 nmol·h/L
Cmax [5]: 45.8 ± 9.94 nM
MRT0-∞ [5]: 2.10 ± 0.24 h
t 1/2 [5]: 2.00 ± 0.63 h

cumulative excretion into bile [2]: 410 ± 55.4 nmol
time at which C max was exhibited ([3]; rat plasma): ≤ 20 min
AUC(0-inf) ([3]; 6 g/kg): 2.46 µM·h
AUC(0-t) ([3]; 6 g/kg): 2.38 µM·h
Cmax ([3]; 6 g/kg): 1670 nM
MRT inf ([3]; 6 g/kg): 3.86 ± 1.17 h
Tmax ([3]; 6 g/kg): 0.24 ± 0.15 h
half-life ([3]; 6 g/kg): 6.53 ± 2.45 h
AUC(0-inf) ([3]; 18 g/kg): 4.2 µM·h
AUC(0-t) ([3]; 18 g/kg): 4.04 µM·h
Cmax ([3]; 18 g/kg): 3260 nM
MRT inf ([3]; 18 g/kg): 4.37 ± 0.91 h
half-life ([3]; 18 g/kg): 6.54 ± 2.02 h
Conclusion (dose-exposure relationship) [4, 9]: Nonlinear correlation
Conclusion (dose-exposure relationship) [4, 10]: Nonlinear correlation
Slope (90%CI) [4, 11]: 0.342 (0.204–0.479)
Slope (90%CI) [4, 12]: 0.536 (0.422–0.649)
AUC(0-t) [6, 16]: 18.2 µM·h
AUC(0-t) [6, 17]: 6.42 µM·h
AUC(0-t) [6, 18]: 45.5 µM·h
AUC(0-t) [6, 19]: 71.7 µM·h
AUC(0-t) [6, 20]: 86.4 µM·h
AUC(0-t) ([6]; both, kidney, AUC0-t in the kidney, RPM extract 18 g/kg p.o., rat kidney, sampling 5, 15, 60 min): 86.4 µM·h
AUC(0-t) [6, 21]: 114 µM·h
AUC(0-t) [6, 22]: 35.1 µM·h
AUC(0-t) [6, 23]: 68.7 µM·h
AUC(0-t) [6, 24]: 47.9 µM·h
AUC(0-t) [6, 25]: 7.59 µM·h
AUC(0-t) [6, 26]: 12.2 µM·h
AUC(0-t) [6, 27]: 7.77 µM·h
dose excreted [7, 13]: 24.6%
dose excreted [7, 14]: 38.9%
dose excreted [7, 15]: 14.3%
cumulative excretion into feces [7]: 2778 ± 349 nmol
cumulative excretion into urine [7]: 1619 ± 208 nmol
Structure (SMILES): OC[C@H]1O[C@@H](Oc2c(O)cc(O)cc2/C=C/c2ccc(O)cc2)[C@H](O)[C@@H](O)[C@@H]1O [TSG, 2,3,5,4′-teterahydroxystilbene-2-O-β-D-glucoside]
logP ([1]; no source given): 0.10
AUC0-∞ [5]: 4,610 ± 1,430 nmol·h/L
AUC(0-t) [5]: 4,460 ± 1,360 nmol·h/L
Cmax [5]: 4290 nM
